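The compound was tested at five concentrations on cells cultured in 96-well plates, with a 48-hour exposure period. GI50 = concentration required for 50% inhibition of growth.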 Activity calls are given as the source filed them. No stated cut-off is given here; in the data, active = GI50 up to about 1.1 µM and inactive = higher.
Tests used:
Assay in all cases: NCI-60 cell line screen, 48 h
MDA-MB-435 = tested on: MDA-MB-435
SK-MEL-5 = tested on: SK-MEL-5
NCI-H460 = tested on: NCI-H460
UACC-257 = tested on: UACC-257
SF-295 = tested on: SF-295
SN12C = tested on: SN12C
SNB-75 = tested on: SNB-75
T47D = tested on: T47D
SF-268 = tested on: SF-268
OVCAR-3 = tested on: OVCAR-3
SF-539 = tested on: SF-539
HOP-92 = tested on: HOP-92
HL-60 = tested on: HL-60
Malme-3M = tested on: Malme-3M
ACHN = tested on: ACHN
KM12 = tested on: KM12
NCI-H226 = tested on: NCI-H226
SNB-19 = tested on: SNB-19
UACC-62 = tested on: UACC-62

| Compound | GI50 (MDA-MB-435) | GI50 (SK-MEL-5) | GI50 (NCI-H460) | GI50 (UACC-257) | GI50 (SF-295) | GI50 (SN12C) | GI50 (SNB-75) | GI50 (T47D) | GI50 (SF-268) | GI50 (OVCAR-3) | GI50 (SF-539) | GI50 (HOP-92) | GI50 (HL-60) | GI50 (Malme-3M) | GI50 (ACHN) | GI50 (KM12) | GI50 (NCI-H226) | GI50 (SNB-19) | GI50 (UACC-62) |
| --- | --- | --- | --- | --- | --- | --- | --- | --- | --- | --- | --- | --- | --- | --- | --- | --- | --- | --- | --- |
| O=[N+]([O-])/C=C/c1cc2ccc3ccccc3c2[nH]1 | 1.69 µM (inactive) | 1.64 µM (inactive) | 2.11 µM (inactive) | 2.24 µM (inactive) | 2.4 µM (inactive) | 1.86 µM (inactive) | 1.79 µM (inactive) | 1.31 µM (inactive) | 1.77 µM (inactive) | 1.55 µM (inactive) | 1.86 µM (inactive) | 1.76 µM (inactive) | 2.12 µM (inactive) | 1.55 µM (inactive) | 1.54 µM (inactive) | 1.83 µM (inactive) | 1.06 µM (active) | 2.66 µM (inactive) | 1.68 µM (inactive) |
| COC(=O)CCCC(=O)/C(=N\Nc1ccc(Cl)cc1)Nc1c(Cl)cccc1Cl | 76.7 µM (inactive) | 32.8 µM (inactive) | 26.7 µM (inactive) | 59 µM (inactive) | 35.2 µM (inactive) | > 100 µM (inactive) | 27.5 µM (inactive) | > 46.5 µM (inactive) | > 89.7 µM (inactive) | 55.5 µM (inactive) | > 100 µM (inactive) | 45 µM (inactive) | 7.06 µM (inactive) | 97.1 µM (inactive) | > 87.9 µM (inactive) | 32 µM (inactive) | 45.2 µM (inactive) | 35.7 µM (inactive) | 60 µM (inactive) |
| CCOC(=O)C1(Cc2ccc(C)cc2)Cc2ccc(C)cc2C1=O (stereo not drawn) | 2.81 µM (inactive) | 6.4 µM (inactive) | 27.9 µM (inactive) | 18.9 µM (inactive) | 15.4 µM (inactive) | 14.9 µM (inactive) | 24.3 µM (inactive) | 12.4 µM (inactive) | 48.4 µM (inactive) | 18.5 µM (inactive) | 19.8 µM (inactive) | 14.6 µM (inactive) | 2.55 µM (inactive) | 16.4 µM (inactive) | 41.7 µM (inactive) | 4.57 µM (inactive) | 35.2 µM (inactive) | 36.6 µM (inactive) | 11.8 µM (inactive) |
| COc1ccc2nc(/C(N)=C\C#N)ccc2c1 | 32.6 µM (inactive) | 11.9 µM (inactive) | > 100 µM (inactive) | > 100 µM (inactive) | 93.8 µM (inactive) | 57.5 µM (inactive) | > 100 µM (inactive) | 30.9 µM (inactive) | 33.7 µM (inactive) | 31.6 µM (inactive) | 46 µM (inactive) | 91.8 µM (inactive) | 18 µM (inactive) | > 100 µM (inactive) | 75.2 µM (inactive) | 52.1 µM (inactive) | > 100 µM (inactive) | > 100 µM (inactive) | 6.58 µM (inactive) |
| COC(=O)C1=C(C(=O)OC)SC(=C2SCSC3=C2SC(C(=O)OC)=C(C(=O)OC)C32SC3=C(CCCC3)S2)S1 | > 100 µM (inactive) | > 100 µM (inactive) | > 100 µM (inactive) | > 100 µM (inactive) | 83.9 µM (inactive) | > 100 µM (inactive) | 13.9 µM (inactive) | > 100 µM (inactive) | > 100 µM (inactive) | > 100 µM (inactive) | 44.5 µM (inactive) | 56.2 µM (inactive) | > 100 µM (inactive) | > 100 µM (inactive) | 62.2 µM (inactive) | > 100 µM (inactive) | > 100 µM (inactive) | 55.7 µM (inactive) | > 100 µM (inactive) |
| C=CCN1C(=O)/C(=C/c2ccc(C)cc2)N=C1SC/C=C/C | 34.4 µM (inactive) | 22.7 µM (inactive) | 40.3 µM (inactive) | 32.7 µM (inactive) | 36.8 µM (inactive) | 28.1 µM (inactive) | 17.8 µM (inactive) | 16.3 µM (inactive) | 33.2 µM (inactive) | 40.8 µM (inactive) | 77.3 µM (inactive) | 22.6 µM (inactive) | 15.8 µM (inactive) | 32.1 µM (inactive) | 40.2 µM (inactive) | 27.8 µM (inactive) | > 100 µM (inactive) | 15.5 µM (inactive) | 39.5 µM (inactive) |
| CC1=C(C(=O)OC(C)C)C(c2cccc([N+](=O)[O-])c2)C(C(=O)OC(CO[N+](=O)[O-])CO[N+](=O)[O-])=C(C)N1 (stereo not drawn) | 3.15 µM (inactive) | 1.96 µM (inactive) | 3.5 µM (inactive) | 3.54 µM (inactive) | 0.501 µM (active) | 3.97 µM (inactive) | 2.66 µM (inactive) | 3.99 µM (inactive) | 2.26 µM (inactive) | 3.45 µM (inactive) | 3.01 µM (inactive) | 1.78 µM (inactive) | 2 µM (inactive) | 5.15 µM (inactive) | 3.44 µM (inactive) | 3.3 µM (inactive) | 6.55 µM (inactive) | 2.99 µM (inactive) | 2.65 µM (inactive) |

— ChEMBL document CHEMBL1201862, “PubChem BioAssay data set” (2004)
